From publication PMC10855164, “Ligand-Based Design of Selective Peptidomimetic uPA and TMPRSS2 Inhibitors with Arg Bioisosteres” (International Journal of Molecular Sciences, 2024) come the findings set out here.

Structures are written as SMILES.

Broadly, the Ki is a dissociation constant, usually derived from enzyme kinetics or from competition with a known ligand. Lower therefore signals tighter binding.

In one experiment the target is T1, uPA (Homo sapiens, UniProt P00749).
T1 construct: purchased Sigma Aldrich
Nature of the experiment: fluorometric enzyme inhibition assay, uPA (Z-Gly-Gly-Arg-AMC). To be noted: for Ki: from IC50 by Cheng-Prusoff, n.a. = not active, <80% inhibition at 20 µM. The format is biochemical. The protocol:
(§1) The inhibitory activity of the synthesized compounds towards the respective main- and off-target proteases was measured via fluorometric and colorimetric assays. Thus, fluorogenic AMC- or colorimetric pNA-based substrates with a peptide sequence suitable for the tested protease were utilized (see Supplementary Figure S2). At first, the compounds were screened against […] proteases (uPA, TMPRSS2, matriptase, tPA, thrombin, factor Xa) at 20 µM, and a cut-off value of 80% inhibition at this concentration was set, for the differentiation between nonactive (n.a.) and active inhibitors. Due to the reversible inhibition mechanism of the ketobenzothiazole derivates, the IC50 values were determined with Graphpad Prism 9, and afterwards converted to the corresponding Ki values for an adequate comparison between the inhibitory activities of the compounds toward all tested proteases. The Ki values were calculated using the Cheng–Prusoff equation [43].
(§2) Fluorometric inhibition assays
(§3) The inhibitory activities of the compounds against the proteases were determined by enzyme inhibition assays with fluorogenic or colorimetry-based substrates. The fluorescence, caused by cleaved AMC from the fluorogenic substrates (uPA, matriptase, TMPRSS2, thrombin), was measured in white flat-bottom 96-well plates from Greiner Bio-One using a Tecan Infinite F200 Pro plate reader. The absorption, caused by cleaved pNA from colorimetric substrates (factor Xa and tPA), was measured in transparent flat-bottom 96-well plates from Greiner Bio-One using a Tecan Spark 10M plate reader. All measurements with the main-target proteases (uPA and TMRPSS2) were performed as triplicates and with the off-target proteases (matriptase, factor Xa, tPA, thrombin) as duplicates. The substrates and the compounds were prepared as stock solutions in DMSO. Each well contained a total volume of 200 µL, consisting of 185 µL buffer, 5 µL inhibitor in DMSO or pure DMSO as negative control, 5 µL substrate in DMSO and 5 µL enzyme solution in buffer. Dilution series were prepared for the determination of the inhibition constants. The fluorescence signal and absorbance were measured every 30 s for 10 min at 25 or 37 °C with the corresponding excitation/emission (λex = 380 nm / λem = 460 nm) and absorbance (λabs = 405 nm) wavelengths, depending on the targeted protease. IC50 values for the reversible inhibitors were calculated with Graphpad Prism 9 by fitting the remaining enzymatic activity to the four parameter IC50 equation with Y [%] as the residual enzyme activity , Ymax as the maximum value of the dose response curve at inhibitor concentrations [I] = 0 µM, Ymin as the minimum value at high inhibitor concentrations and s as the hill coefficient.[1] The fluorescence progress curves and sigmoidal dose-response curve for inhibition of uPa by compound 38 is shown exemplary in Figure S2.
Figure S2: (left) Fluorescence progress curves for inhibition of uPa by cpd. 38. (right) Plot showing the respective IC50 value […]
(§4) Due to the dependence of the IC50 value on the substrate affinity and concentration, the Ki values were calculated with the Cheng-Prusoff equation, using the final substrate concentration [S] and the Michaelis-Menten constant KM, (2) for appropriate comparison of the inhibitory activities to the other enzymes and inhibitors.[1]
KM values were determined by fitting to the Michaelis-Menten equation using Graphpad Prism 9 with v [ΔF/min] as the substrate hydrolysis rate, vmax as the maximum slope of the dose-response curve, and the substrate [S] concentration.[1] The different substrates were serially diluted in DMSO. The measurement was done in analogy to the determination of the inhibitory activity, but with 5 µL pure DMSO instead of inhibitor solution. The fluorescence progress curves and Michaelis-Menten curve of the specific substrate of uPA is shown exemplarily […]
Figure S3: (left) Fluorescence progress curves of cleavage of Z-Gly-Gly-Arg-AMC by uPA. (right) Michaelis-Menten curve […]

The target in a further experiment is T2, TMPRSS2 (Homo sapiens, UniProt O15393).
T2 construct: purchased Cusabio
Nature of the experiment: fluorometric enzyme inhibition assay, TMPRSS2 (Boc-Gln-Ala-Arg-AMC). The format is biochemical. To be noted: for Ki: from IC50 by Cheng-Prusoff, n.a. = not active, <80% inhibition at 20 µM. The protocol: as §1, §2
as §3, with “S2. […]” for “S2.”
as §4
KM values were determined by fitting to the Michaelis-Menten equation using Graphpad Prism 9 with v [ΔF/min] as the substrate hydrolysis rate, vmax as the maximum slope of the dose-response curve, and the substrate [S] concentration.[1] The different substrates were serially diluted in DMSO. The measurement was done in analogy to the determination of the inhibitory activity, but with 5 µL pure DMSO instead of inhibitor solution. […]
The following buffers and substrates were used for the respective assays: uPA (50 mM Tris HCl pH = 7.9, 150 mM […]
TMPRSS2 (25 mM Tris HCl pH = 8.0, 150 mM NaCl, 5 mM CaCl2, 0.001% TX-100, 100 µM Boc-Gln-Ala-Arg-AMC (KM: 68.63 ± 6.64 µM), 25 °C, 3 nM TMPRSS2)[3]; matriptase (50 mM Tris HCl pH = 8.0, 150 mM NaCl, 5 mM CaCl2, […]

T2 sequence (O15393 whole entry): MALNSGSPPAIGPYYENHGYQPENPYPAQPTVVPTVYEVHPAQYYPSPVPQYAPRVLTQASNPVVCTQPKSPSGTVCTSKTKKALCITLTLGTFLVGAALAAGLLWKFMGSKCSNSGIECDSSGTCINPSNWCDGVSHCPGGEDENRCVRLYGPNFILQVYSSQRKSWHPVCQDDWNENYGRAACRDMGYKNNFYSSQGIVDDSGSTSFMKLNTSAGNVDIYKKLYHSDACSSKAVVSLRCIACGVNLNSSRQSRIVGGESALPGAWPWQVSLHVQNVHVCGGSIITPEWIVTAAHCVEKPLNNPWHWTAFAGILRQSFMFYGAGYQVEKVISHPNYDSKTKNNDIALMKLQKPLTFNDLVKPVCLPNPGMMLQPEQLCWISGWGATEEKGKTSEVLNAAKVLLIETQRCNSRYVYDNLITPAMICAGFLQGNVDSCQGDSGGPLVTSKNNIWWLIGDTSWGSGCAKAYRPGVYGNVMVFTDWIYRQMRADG

As to `CC(=O)NCC(=O)NC(C(=O)NC(C)C(=O)NC(CC1CCC(NC(=N)N)CC1)C(=O)c1nc2ccccc2s1)C(C)O` (stereo not drawn) [Compound 38], the Ki on uPA worked out at 39 ± 5 nM; at TMPRSS2 it was 73 ± 16 nM. The “Selectivity index [SI] TMPRSS2” value at TMPRSS2 (quotient Ki TMPRSS2 / Ki uPA) is reported as 1.8.

Turning to `CC(=O)N[C@@H](Cc1ccccc1)C(=O)N[C@@H](Cc1ccc(NC(=N)N)cc1)C(=O)c1nc2ccccc2s1` [Compound 33], the Ki on uPA came to 5260 ± 922 nM; at TMPRSS2 it was 5 ± 2 nM. The “Selectivity index [SI] uPA” value at uPA (quotient Ki uPA / Ki TMPRSS2) stood at 1052.
